Key:
[1] = tested on: 3-nitrotyrosine protein adducts in dopaminergic neurons of the substantia nigra; test: Protein nitration in dopaminergic neurons of mice treated with MPTP; format: in vivo, C57B1/6 mice; settings: 50 mg/Kg oral gavage in corn oil once per day for four days following MPTP; substantia nigra 7 days following MPTP
Experimental: C57B1/6 mice were treated with MPTP (2 injections of 15 mg/kg, 12 hours apart) in the presence and absence of DIM-C-pPhOCH3 (DIM5) and assessed for 3-nitrotyrosine protein adducts (a marker of nitrosative stress and excessive NO/peroxynitrite formation). DIM-C-pPhOCH3 was administered once per day for four days following MPTP treatment by oral gavage in corn oil at 50 mg/Kg and frozen sections through the substantia nigra were prepared 7 days following MPTP. Immunofluorescence images were collected using a 40× Zeiss PlanApochromat objective for tyrosine hydroxylase (green), 3-nitrotyrosine (red), and DAPI (blue; DNA/nuclear stain). […] DIM-C-pPhOCH3 prevented protein nitration in dopaminergic neurons in mice treated with MPTP.

[2] = tested on: proximal NF-κB enhancer element of the Nos2 promoter; test: Chromatin immunoprecipitation (ChIP) at the proximal NF-κB enhancer element of the Nos2 promoter in astrocytes; format: cell-based, mouse; settings: 10 μM co-treatment; FIG. 5
Experimental: Chromatin Immunoprecipitation (ChIP). ChIP procedures were adapted from a previously published report (Weinmann and Farnham, 2002) and optimized for primary astrocytes according to recent studies from our laboratory. Astrocytes were grown to confluence in 10 cm plates (Approx. 8.8×10^6 cells) and were treated for 3 hours with MPTP (10 μM), TNF-α (10 pg/ml) and IFN-γ (1 ng/ml) with or without DIM-C-pPhtBu (10 μM), rosiglitazone (10 μM) or a DMSO vehicle control for 3 hours prior to analysis. DNA was sheared into approximate 500 bp fragments by three ten-second pulses using a Tekmar Sonic Disrupter (Tekmar Co., Cincinnati, Ohio) set at 30% output, followed by collection of 10% input controls and addition of 2 μg precipitating antibody. Immune complexes were allowed to form overnight at 4° C. with gentle agitation, followed by the addition of protein-G magnetic beads (Active Motif, Carlsbad, Calif.) for an additional 90 min. Immunopurified DNA was isolated via phenol/chloroform extraction and subject to PCR using primers designed around the proximal murine Nos2 NF-κB binding region (Xie et al., 1992) (forward: 5′-ATGGCCTTGCATGAGGATACACCA-3′ Chromatin Immunoprecipitation (ChIP). ChIP procedures were adapted from a previously published report (Weinmann and Farnham, 2002) and optimized for primary astrocytes according to recent studies from our laboratory. Astrocytes were grown to confluence in 10 cm plates (Approx. 8.8×10^6 cells) and were treated for 3 hours with MPTP (10 μM), TNF-α (10 pg/ml) and IFN-γ (1 ng/ml) with or without DIM-C-pPhtBu (10 μM), rosiglitazone (10 μM) or a DMSO vehicle control for 3 hours prior to analysis. DNA was sheared into approximate 500 bp fragments by three ten-second pulses using a Tekmar Sonic Disrupter (Tekmar Co., Cincinnati, Ohio) set at 30% output, followed by collection of 10% input controls and addition of 2 μg precipitating antibody. Immune complexes were allowed to form overnight at 4° C. with gentle agitation, followed by the addition of protein-G magnetic beads (Active Motif, Carlsbad, Calif.) for an additional 90 min. Immunopurified DNA was isolated via phenol/chloroform extraction and subject to PCR using primers designed around the proximal murine Nos2 NF-κB binding region (Xie et al., 1992) (forward: 5′-ATGGCCTTGCATGAGGATACACCA-3′(SEQ ID NO:5); reverse: 5′-GAGTCTCAGTCTTCAACTCCCTGT-3′(SEQ ID NO:6)). Amplicons were separated by 2% agarose gel electrophoresis and stained with ethidium bromide.
To determine the mechanism by which DIM-C-pPhtBu modulates NF-κB activity, the ChIP assay was used to identify specific DNA-protein interactions at the proximal NF-κB enhancer element (-86 to -76) of the Nos2 promoter.
Primary cultured astrocytes were treated with MPTP and TNF/IFN in the presence or absence of DIM-C-pPhOCH3 (DIMS, 1 uM) or rosiglitazone (Ro, 10 uM) and cellular lysates subjected to chromatin immunoprecipitation (ChIP) assay for HDAC3 association with the proximal NF-kB binding site in the Nos2 promoter. HDAC3 is a transcriptional co-repressor of Nos2 gene expression.

[3] = tested on: astrocyte activation, NOS2 and NF-κB/GFP expression in striatum; test: Anti-inflammatory efficacy in transgenic NF-κB-GFP reporter mice treated with MPTP; format: in vivo, mice (C57B1/6 background); settings: 50 mg/Kg oral gavage in corn oil once per day for four days following MPTP; striatum 7 days following MPTP
Experimental: Transgenic NF-κB-GFP reporter mice (C57B1/6 background) were exposed to MPTP (2 injections of 15 mg/kg, 12 hours apart) in the presence and absence of DIM-C-pPhtBu and assessed for activation of astrocytes, expression of NOS2, and expression of GFP (representing NF-kB activity). DIM-C-pPhtBu was administered once per day for four days following MPTP treatment by oral gavage in corn oil at 50 mg/Kg and frozen sections through the striatum were prepared 7 days following MPTP. Immunofluorescent images were collected using a 40× Zeiss PlanApochromat objective for GFAP as marker for astrocytes (purple), NOS2 (red), green fluorescent protein (GFP; green), and DAPI (blue; DNA stain). Co-location of red and green channels is depicted in the image as yellow. […] This activated glial phenotype was inhibited by treatment with DIM-C-pPhtBu.

NF-κB = settings: proximal p65 enhancer element; cited from earlier work

Binding of p65 to the Nos2 promoter induced by MPTP and cytokines [2] | SMILES | Protein nitration (3-nitrotyrosine) in dopaminergic neurons [1] | Recruitment of PPAR-γ to the proximal NF-κB response element [2] | Stabilization of NCoR2 at the proximal NF-κB response element [2] | MPTP-induced activated glial phenotype (hypertrophic astrocytes expressing NOS2 and NF-κB/GFP) [3] | Effect on NF-κB in RAW macrophages (NF-κB)
 | COc1ccc(C(c2c[nH]c3ccccc23)c2c[nH]c3ccccc23)cc1 [DIM-C-pPhOCH3, 1,1-bis(3′-indolyl)-1-(p-methoxyphenyl)methane] | completely suppressed |  |  |  | 
blocked | CC(C)(C)c1ccc(C(c2c[nH]c3ccccc23)c2c[nH]c3ccccc23)cc1 [DIM-C-pPhtBu, 1,1-bis(3′-indolyl)-1-(p-t-butylphenyl)methane] |  | did not recruit PPAR-γ | nor did it stabilize NCoR2 | inhibited | 
 | CN(CCOc1ccc(CC2SC(=O)NC2=O)cc1)c1ccccn1 (centres unmarked) [rosiglitazone, 5-((4-(2-(methyl-2-pyridinylamino)ethoxy)phenyl)methyl)-2,4-thiazolidinedione, reference compound] |  | recruited PPAR-γ | prevented degradation of NCoR2 |  | antagonize NF-κB by stabilizing NCoR2

Source: patent publication US8580843B2, “Use of diindolylmethane (DIM) compounds and derivatives as neuroprotective agents” (Colorado State University Research Foundation, priority 2008, dated 2013)
